Measured values as given in ChEMBL document CHEMBL5335868, “Exploring Scaffold Hopping for Novel 2-(Quinolin-4-yloxy)acetamides with Enhanced Antimycobacterial Activity” (ACS Med Chem Lett, 2024).
Values after ≈ are worked out from the molar mass of the structure shown.

Columns and labels:
Assay type in all cases: functional
[1] = system: Mycobacterium tuberculosis; test: Antibacterial activity against multi-drug resistant Mycobacterium tuberculosis clinical isolate PT2 assessed as bacterial growth inhibition measured after 7 days by resazurin based assay; conditions: 168 h, time 7 day
[2] = system: Mycobacterium tuberculosis; test: Antibacterial activity against multi-drug resistant Mycobacterium tuberculosis clinical isolate PT12 assessed as bacterial growth inhibition measured after 7 days by resazurin based assay; conditions: 168 h, time 7 day
[3] = system: Mycobacterium tuberculosis; test: Antibacterial activity against multi-drug resistant Mycobacterium tuberculosis clinical isolate PT20 assessed as bacterial growth inhibition measured after 7 days by resazurin based assay; conditions: 168 h, time 7 day
[4] = system: Mycobacterium tuberculosis; test: Antibacterial activity against qcrB-resistant Mycobacterium tuberculosis harbouring T313A mutant assessed as bacterial growth inhibition measured after 7 days by resazurin based assay; conditions: time 7 day

Structure (SMILES)	MIC [1]	MIC [2]	MIC [3]	MIC [4]
Cc1cc(OCC(=O)Nc2ccc(N3CCC(c4ccccc4)CC3)cc2)c2cc(Cl)ccc2n1	< 0.02 µM	< 0.02 µM	< 0.02 µM	>10.3 µM
Cc1cc(OCC(=O)Nc2ccc(N3CCC(c4ccccc4)CC3)cc2)c2cc(Br)ccc2n1	< 0.02 µM	< 0.02 µM	< 0.02 µM	>9.4 µM
CO[C@H]1/C=C/O[C@@]2(C)Oc3c(C)c(O)c4c(O)c(c(/C=N/N5CCN(C)CC5)c(O)c4c3C2=O)NC(=O)/C(C)=C\C=C\[C@H](C)[C@H](O)[C@@H](C)[C@@H](O)[C@@H](C)[C@H](OC(C)=O)[C@@H]1C [RIFAMPIN]	> 48.6 µM	> 48.6 µM	> 48.6 µM	–
NNC(=O)c1ccncc1 [ISONIAZID]	–	146 µM (≈ 20 µg/mL)	–	2.3 µM (≈ 0.315 µg/mL)
COc1ccc2nc(C)cc(OCC(=O)Nc3ccc(N4CCC(c5ccccc5)CC4)cc3)c2c1	< 0.02 µM	< 0.02 µM	< 0.02 µM	>10.4 µM
COc1ccc2nc(C)cc(OCC(=O)Nc3ccc(N4CCC(c5ccc(OC(F)(F)F)cc5)CC4)cc3)c2c1	< 0.02 µM	< 0.02 µM	< 0.02 µM	>8.8 µM
